Laboratory results from the supplement of paper PMC6045584.
± gives the standard deviation of the averaged measurements.

Columns and labels:
[1] = compound: O=C(O)C1(C(=O)O)CCC1.[NH2-].[NH2-].[Pt+2] [CARBOPLATIN]; test: area under dose-response curve of surviving fraction (unscaled, Aref=0) (surviving fraction x log10(nM)); higher = more resistant; conditions: exposure time: 5 days; dose range 0.5-1000 nM
In short: (§1)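 Each tumour cell line was screened three times in 384-well plates, receiving eight inhibitor concentrations from 0.5 to 1000 nM for five days. CellTiter-Glo luminescence gave viability, normalised to DMSO-only wells. Using the drc R package, surviving fractions were fitted with 3-parameter logistic dose-response curves, and the unscaled activity area over log10 dose (Aref = 0) was taken as the area under the curve.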

[2] = compound: CC(=O)c1c(C)c2cnc(Nc3ccc(N4CCNCC4)cn3)nc2n(C2CCCC2)c1=O; test: as above; conditions: exposure time: 5 days; dose range 0.5-1000 nM
In short: as §1

[3] = compound: CC(=O)NCC(=O)N1[C@@H]2CC[C@H]1c1ccc(Nc3ncc(C(F)(F)F)c(NC4CCC4)n3)cc12; test: as above; conditions: exposure time: 5 days; dose range 0.5-1000 nM
In short: as §1

[4] = compound: COCC[n+]1c2c(n(Cc3cnccn3)c1C)C(=O)c1ccccc1C2=O [YM155]; test: as above; conditions: exposure time: 5 days; dose range 0.5-1000 nM
In short: as §1

[5] = compound: T1, C[C@]1(O)C[C@@H](c2nc(-c3ccc4ccc(-c5ccccc5)nc4c3)c3c(N)nccn32)C1 [OSI-906]; test: as above; conditions: exposure time: 5 days; dose range 0.5-1000 nM
In short: as §1

[6] = compound: CC(=O)O[C@H]1C(=O)[C@@]2(C)[C@H]([C@H](OC(=O)c3ccccc3)[C@]3(O)C[C@H](OC(=O)[C@H](O)[C@@H](NC(=O)c4ccccc4)c4ccccc4)C(C)=C1C3(C)C)[C@]1(OC(C)=O)CO[C@@H]1C[C@@H]2O [PACLITAXEL]; test: as above; conditions: exposure time: 5 days; dose range 0.5-1000 nM
In short: as §1

[7] = compound: COc1cc2ncnc(Nc3ccc(F)c(Cl)c3)c2cc1OCCCN1CCOCC1 [GEFITINIB]; test: as above; conditions: exposure time: 5 days; dose range 0.5-1000 nM
In short: as §1

[8] = compound: CC[C@@]1(O)C(=O)OCc2c1cc1n(c2=O)Cc2cc3ccccc3nc2-1 [CAMPTOTHECIN]; test: as above; conditions: exposure time: 5 days; dose range 0.5-1000 nM
In short: as §1

[9] = compound: T1, OSI-906; test: surviving fraction relative to DMSO-only wells; higher = less growth inhibition; conditions: exposure time: 5 days
In short: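 After seeding at 250–500 cells per well in 384-well plates and a 24-hour wait, log-phase tumour cell lines were exposed without interruption for five days to inhibitors at 0.5, 1, 5, 10, 50, 100, 500 and 1000 nM. CellTiter-Glo luminescence was recorded after 10 minutes at room temperature. Viability is reported as surviving fraction, the luminescence normalised to the median of DMSO-only wells.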

[10] = compound: Cc1ccc(-c2cc(C(F)(F)F)nn2-c2ccc(S(N)(=O)=O)cc2)cc1 [CELECOXIB]; test: area under dose-response curve of surviving fraction (unscaled, Aref=0) (surviving fraction x log10(nM)); higher = more resistant; conditions: exposure time: 5 days; dose range 0.5-1000 nM
In short: as §1

| Test System | area under dose-response curve [1] | area under dose-response curve [2] | area under dose-response curve [3] | area under dose-response curve [4] | area under dose-response curve [5] | area under dose-response curve [6] | area under dose-response curve [7] | area under dose-response curve [8] | surviving fraction ([9]; 0.5 nM) | surviving fraction ([9]; 1 nM) | surviving fraction ([9]; 5 nM) | surviving fraction ([9]; 10 nM) | surviving fraction ([9]; 50 nM) | surviving fraction ([9]; 100 nM) | surviving fraction ([9]; 500 nM) | surviving fraction ([9]; 1000 nM) | area under dose-response curve [10] |
| --- | --- | --- | --- | --- | --- | --- | --- | --- | --- | --- | --- | --- | --- | --- | --- | --- | --- |
| 22RV1 PROSTATE | 3.48 | 3.53 | 2.6 | 1.58 | 3.1 | 0.962 | 3.34 | 1.47 | 0.9557 ± 0.009 | 1 ± 0.097 | 0.934 ± 0.11 | 1.01 ± 0.18 | 0.902 ± 0.049 | 0.928 ± 0.077 | 0.911 ± 0.14 | 0.803 ± 0.11 |  |
| ASKA SYNOVIAL | 3.72 |  | 2.15 | 1.57 | 3.41 | 0.983 | 3.71 | 0.904 | 0.934 ± 0.059 | 0.99 ± 0.057 | 1.01 ± 0.011 | 1.07 ± 0.071 | 1.11 ± 0.13 | 1.12 ± 0.045 | 0.966 ± 0.083 | 0.97 ± 0.029 | 3.87 |
| BT20 BREAST |  |  | 2.05 | 0.651 | 2.91 | 0.614 | 3.62 | 0.907 | 0.736 ± 0.051 | 0.724 ± 0.058 | 0.776 ± 0.05 | 0.763 ± 0.073 | 1 ± 0.031 | 1.05 ± 0.095 | 1.23 ± 0.05 | 1.28 ± 0.04 | 3.78 |
| BT549 BREAST | 3.61 |  | 2.58 | 1.74 | 3.07 | 0.396 | 3.57 | 0.714 | 0.867 ± 0.08 | 0.792 ± 0.027 | 0.836 ± 0.048 | 0.88 ± 0.13 | 1.11 ± 0.18 | 0.984 ± 0.059 | 1.1 ± 0.096 | 0.94 ± 0.067 | 3.78 |
| CADOES1 SOFT TISSUE |  | 2.79 | 2.12 | 3.1 | 3.12 | 1.87 | 3.02 | 0.642 | 1.025 ± 0.0076 | 1.04 ± 0.024 | 0.957 ± 0.096 | 1.02 ± 0.036 | 0.847 ± 0.14 | 0.886 ± 0.1 | 0.871 ± 0.059 | 0.962 ± 0.023 | 2.95 |
| CCK81 LARGE INTESTINE | 2.67 |  |  | 2.51 | 2.3 |  | 1.85 | 1.63 | 0.782 ± 0.2 | 0.815 ± 0.089 | 0.87 ± 0.051 | 0.784 ± 0.036 | 0.726 ± 0.17 | 0.668 ± 0.13 | 0.414 ± 0.13 | 0.327 ± 0.058 | 2.59 |
| CHLA90 AUTONOMIC GANGLIA |  | 3.14 | 2.51 | 1.31 | 2.73 | 1.13 | 2.9 | 1.21 | 0.883 ± 0.046 | 0.904 ± 0.019 | 0.862 ± 0.036 | 0.828 ± 0.08 | 0.832 ± 0.059 | 0.792 ± 0.084 | 0.78 ± 0.056 | 0.725 ± 0.082 | 3.34 |
| CME SYNOVIAL | 4.52 | 4.13 | 2.49 | 1.3 |  | 1.47 |  | 0.288 | 0.905 ± 0.26 | 0.854 ± 0.13 | 0.934 ± 0.15 | 0.973 ± 0.075 | 1.08 ± 0.058 | 1.14 ± 0.21 | 0.984 ± 0.095 | 0.823 ± 0.13 | 4.61 |
